Legend:
TMD-8 cells = experiment: Cell proliferation assay (CellTiter-Glo), TMD-8 cells; type: cell-based; conditions: Homo sapiens, TMD8, 120 h, 5-day treatment, read-out: TMD8 cell growth (GI50 μM)
How it was run: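 TMD-8 cells seeded at 5,000–10,000/well, cultured overnight, then exposed to compound (vehicle 0.5% DMSO) for 5 days at 37 °C. Growth read by CellTiter-Glo luminescence; IC50 from log concentration versus % growth inhibition relative to vehicle.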

Btk = target: T1, Btk (Homo sapiens, UniProt Q06187); experiment: Btk kinase assay (ADP-Glo); type: biochemical; conditions: ADP-Glo Btk kinase assay kit; ATP 1.2 μM; 60 minutes at room temperature
T1 construct: purchased Promega (Madison, Wis.)
How it was run: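 Luminescent ADP detection after a 60 min reaction at 22±1 °C containing Btk 2 ng/μl, 1.2 μM ATP, 0.3 μM poly GT peptide and 1.4 mM MnCl2. IC50 from log concentration versus percent inhibition relative to DMSO vehicle.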

T1 sequence (Q06187 whole entry): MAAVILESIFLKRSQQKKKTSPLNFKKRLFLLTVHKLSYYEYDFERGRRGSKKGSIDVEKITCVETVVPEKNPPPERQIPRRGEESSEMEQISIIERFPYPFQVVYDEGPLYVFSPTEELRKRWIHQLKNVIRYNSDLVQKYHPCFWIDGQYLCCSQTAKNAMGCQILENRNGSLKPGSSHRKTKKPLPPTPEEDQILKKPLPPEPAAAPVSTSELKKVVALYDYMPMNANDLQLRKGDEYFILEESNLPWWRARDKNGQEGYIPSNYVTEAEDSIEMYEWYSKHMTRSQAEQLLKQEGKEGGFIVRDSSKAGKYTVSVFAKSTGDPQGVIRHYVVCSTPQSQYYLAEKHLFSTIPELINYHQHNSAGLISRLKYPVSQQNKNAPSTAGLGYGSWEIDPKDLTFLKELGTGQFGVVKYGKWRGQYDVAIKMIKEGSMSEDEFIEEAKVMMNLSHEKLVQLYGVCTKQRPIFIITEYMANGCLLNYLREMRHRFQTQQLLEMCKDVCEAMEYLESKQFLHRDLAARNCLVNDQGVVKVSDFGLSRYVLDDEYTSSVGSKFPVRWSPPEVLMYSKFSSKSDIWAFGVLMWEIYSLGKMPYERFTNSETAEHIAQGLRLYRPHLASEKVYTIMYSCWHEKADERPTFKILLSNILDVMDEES

| SMILES | GI50 (TMD-8 cells) | IC50 (Btk) |
| --- | --- | --- |
| C=CC(=O)N1CC[C@@H](Nc2ncnc3[nH]c(C#CCOc4ccccc4OC(F)(F)F)cc23)C1 [Example 81, (R)-1-(3-((6-(3-(2-(trifluoromethoxy)phenoxy)prop-1-yn-1-yl)-7H-pyrrolo[2,3-d]pyrimidin-4-yl)amino)pyrrolidin-1-yl)prop-2-en-1-one] | 0.003 µM | 0.033 µM |
| C=CC(=O)N1CC[C@@H](Nc2ncnc3[nH]c(C#CCOc4ccccc4C#N)cc23)C1 [Example 82, (R)-1-(3-((6-(3-(2-cyanophenoxy)prop-1-yn-1-yl)-7H-pyrrolo[2,3-d]pyrimidin-4-yl)amino)pyrrolidin-1-yl)prop-2-en-1-one] | 0.0045 µM | 0.038 µM |
| C=CC(=O)N1CC[C@@H](Nc2ncnc3[nH]c(C#CCOc4cccc5c4OCO5)cc23)C1 [Example 83, (R)-1-(3-((6-(3-(benzo[d][1,3]dioxol-4-yloxy)prop-1-yn-1-yl)-7H-pyrrolo[2,3-d]pyrimidin-4-yl)amino)pyrrolidin-1-yl)prop-2-en-1-one] | 0.0017 µM | 0.008 µM |
| C=CC(=O)N1CC[C@@H](Nc2ncnc3[nH]c(C#CCOC4CCCCO4)cc23)C1 (stereo partly drawn) [Example 84, 1-((3R)-3-((6-(3-((tetrahydro-2H-pyran-2-yl)oxy)prop-1-yn-1-yl)-7H-pyrrolo[2,3-d]pyrimidin-4-yl)amino)pyrrolidin-1-yl)prop-2-en-1-one] | 1.09 µM | 0.136 µM |
| C#CC(=O)N1CC[C@@H](Nc2ncnc3[nH]c(C#CCOc4ccccc4F)cc23)C1 [Example 85, (R)-1-(3-((6-(3-(2-fluorophenoxy)prop-1-yn-1-yl)-7H-pyrrolo[2,3-d]pyrimidin-4-yl)amino)pyrrolidin-1-yl)prop-2-yn-1-one] | 0.091 µM | 0.007 µM |
| C=CC(=O)N1CC[C@@H](Nc2ncnc3[nH]c(C#CCn4ncc5ccccc54)cc23)C1 [Example 86, (R)-1-(3-((6-(3-(1H-indazol-1-yl)prop-1-yn-1-yl)-7H-pyrrolo[2,3-d]pyrimidin-4-yl)amino)pyrrolidin-1-yl)prop-2-en-1-one] | 0.018 µM | 0.018 µM |
| C=CC(=O)N1CC[C@@H](Nc2ncnc3[nH]c(C#CCOc4ccccc4C(F)(F)F)cc23)C1 [Example 87, (R)-1-(3-((6-(3-(2-(trifluoromethyl)phenoxy)prop-1-yn-1-yl)-7H-pyrrolo[2,3-d]pyrimidin-4-yl)amino)pyrrolidin-1-yl)prop-2-en-1-one] | 0.002 µM | 0.043 µM |
| C=CC(=O)N1CC[C@@H](Nc2ncnc3[nH]c(C#CCOc4c(F)cccc4OC)cc23)C1 [Example 88, (R)-1-(3-((6-(3-(2-fluoro-6-methoxyphenoxy)prop-1-yn-1-yl)-7H-pyrrolo[2,3-d]pyrimidin-4-yl)amino)pyrrolidin-1-yl)prop-2-en-1-one] | 0.02 µM | 0.018 µM |
| C=CC(=O)N1CC[C@@H](Nc2ncnc3[nH]c(C#CCOc4cccc5sccc45)cc23)C1 [Example 89, (R)-1-(3-((6-(3-(benzo[b]thiophen-4-yloxy)prop-1-yn-1-yl)-7H-pyrrolo[2,3-d]pyrimidin-4-yl)amino)pyrrolidin-1-yl)prop-2-en-1-one] | 0.006 µM | 0.148 µM |
| C=CC(=O)N1CC[C@@H](Nc2ncnc3[nH]c(C#CCOc4c(F)cccc4F)cc23)C1 [Example 90, (R)-1-(3-((6-(3-(2,6-difluorophenoxy)prop-1-yn-1-yl)-7H-pyrrolo[2,3-d]pyrimidin-4-yl)amino)pyrrolidin-1-yl)prop-2-en-1-one] | 0.014 µM | 0.014 µM |
| C=CC(=O)N1CC[C@@H](Nc2ncnc3[nH]c(C#CCOc4cccc(F)c4F)cc23)C1 [Example 91, (R)-1-(3-((6-(3-(2,3-difluorophenoxy)prop-1-yn-1-yl)-7H-pyrrolo[2,3-d]pyrimidin-4-yl)amino)pyrrolidin-1-yl)prop-2-en-1-one] | 0.0015 µM | 0.008 µM |
| C=CC(=O)N1CC[C@@H](Nc2ncnc3[nH]c(C#CCOc4cc(F)ccc4F)cc23)C1 [Example 92, (R)-1-(3-((6-(3-(2,5-difluorophenoxy)prop-1-yn-1-yl)-7H-pyrrolo[2,3-d]pyrimidin-4-yl)amino)pyrrolidin-1-yl)prop-2-en-1-one] | 0.0038 µM | 0.043 µM |
| O=C(C1CC1)N1CC[C@@H](Nc2ncnc3[nH]c(C#CCOc4ccccc4F)cc23)C1 [Example 93, (R)-cyclopropyl(3-((6-(3-(2-fluorophenoxy)prop-1-yn-1-yl)-7H-pyrrolo[2,3-d]pyrimidin-4-yl)amino)pyrrolidin-1-yl)methanone] | 4.2 µM | 0.578 µM |
| O=C([C@H]1C[C@H]1F)N1CC[C@@H](Nc2ncnc3[nH]c(C#CCOc4ccccc4F)cc23)C1 [Example 94, ((1R,2R)-2-fluorocyclopropyl)((R)-3-((6-(3-(2-fluorophenoxy)prop-1-yn-1-yl)-7H-pyrrolo[2,3-d]pyrimidin-4-yl)amino)pyrrolidin-1-yl)methanone] | 3.58 µM | 0.346 µM |
| C=CC(=O)N1CCC[C@@H](Nc2ncnc3[nH]c(C#Cc4ccccc4)cc23)C1 [Example 96, (R)-1-(3-((6-(phenylethynyl)-7H-pyrrolo[2,3-d]pyrimidin-4-yl)amino)piperidin-1-yl)prop-2-en-1-one] | 0.066 µM | 0.014 µM |
| C=CC(=O)N1CCC[C@@H](Nc2ncnc3[nH]c(C#Cc4ccc5c(c4)OCO5)cc23)C1 [Example 97, (R)-1-(3-((6-(benzo[d][1,3]dioxol-5-ylethynyl)-7H-pyrrolo[2,3-d]pyrimidin-4-yl)amino)piperidin-1-yl)prop-2-en-1-one] | 0.004 µM | 0.027 µM |
| C=CC(=O)N1CC[C@@H](Nc2ncnc3[nH]c(C#CCOc4c(F)cccc4F)nc23)C1 [Example 98, (R)-1-(3-((8-(3-(2,6-difluorophenoxy)prop-1-yn-1-yl)-9H-purin-6-yl)amino)pyrrolidin-1-yl)prop-2-en-1-one] | 0.005 µM | 0.006 µM |
| C=CC(=O)N1CC[C@@H](Nc2ncnc3[nH]c(C#CCOc4cccc(F)c4F)nc23)C1 [Example 99, (R)-1-(3-((8-(3-(2,3-difluorophenoxy)prop-1-yn-1-yl)-9H-purin-6-yl)amino)pyrrolidin-1-yl)prop-2-en-1-one] | 0.001 µM | 0.0003 µM |
| C=CC(=O)N1CC[C@@H](Nc2ncnc3[nH]c(C#CCOc4cccc(F)c4Cl)nc23)C1 [Example 100, (R)-1-(3-((8-(3-(2-chloro-3-fluorophenoxy)prop-1-yn-1-yl)-9H-purin-6-yl)amino)pyrrolidin-1-yl)prop-2-en-1-one] | 0.006 µM | 0.032 µM |
| C=CC(=O)N1CC[C@@H](Nc2ncnc3[nH]c(C#CCOc4ccccc4F)nc23)C1 [Example 101, (R)-1-(3-((8-(3-(2-fluorophenoxy)prop-1-yn-1-yl)-9H-purin-6-yl)amino)pyrrolidin-1-yl)prop-2-en-1-one] | 0.003 µM | 0.001 µM |
| C=CC(=O)N1CC[C@@H](Nc2ncnc3[nH]c(C#CCOc4ccccc4OC)nc23)C1 [Example 102, (R)-1-(3-((8-(3-(2-methoxyphenoxy)prop-1-yn-1-yl)-9H-purin-6-yl)amino)pyrrolidin-1-yl)prop-2-en-1-one] | 0.004 µM | 0.0002 µM |
| C=CC(=O)Nc1cccc(Nc2ncnc3[nH]c(C#Cc4ccccc4)cc23)c1 [Example 103, N-(3-((6-(phenylethynyl)-7H-pyrrolo[2,3-d]pyrimidin-4-yl)amino)phenyl)acrylamide] | 0.079 µM | 0.0003 µM |
| C=CC(=O)Nc1cccc(Nc2ncnc3[nH]c(C#Cc4ccsc4)cc23)c1 [Example 104, N-(3-((6-(thiophen-3-ylethynyl)-7H-pyrrolo[2,3-d]pyrimidin-4-yl)amino)phenyl)acrylamide] | 0.017 µM | 0.006 µM |
| C=CC(=O)Nc1cccc(Nc2ncnc3[nH]c(C#Cc4ccc(Cl)cc4)cc23)c1 [Example 105, N-(3-((6-((4-chlorophenyl)ethynyl)-7H-pyrrolo[2,3-d]pyrimidin-4-yl)amino)phenyl)acrylamide] | 0.048 µM | 0.155 µM |
